Assay results published in the NIST ThermoML archive (doi:10.1016/j.jct.2006.09.016).

Key:
[1] = Crystal; DTA
[2] = molar heat capacity at constant pressure; conditions: 101.33 kPa, Crystal
[3] = Molar enthalpy of transition or fusion; conditions: Crystal; DSC

ON=Cc1ccccn1 [2-pyridinealdoxime]
Conditions | Molar enthalpy of transition or fusion [kcal/mol] | Normal melting temperature [°C]
[1] | – | 113.08
[3] | 4.78 | –

[2]
Conditions | molar heat capacity at constant pressure [J/K/mol]
80.46 K | 51.68
84.39 K | 53.78
87.27 K | 55.38
90.22 K | 57.07
93.26 K | 58.78
96.22 K | 60.42
99.1 K | 61.8
102.07 K | 63.16
105.13 K | 64.65
108.12 K | 65.95
111.05 K | 67.4
113.93 K | 68.69
116.9 K | 69.94
119.96 K | 71.33
122.97 K | 72.93
125.94 K | 74.14
128.85 K | 75.41
131.74 K | 76.56
134.71 K | 77.89
137.77 K | 79.05
140.8 K | 80.49
143.79 K | 81.65
146.74 K | 82.72
149.66 K | 83.99
152.56 K | 85.27
155.54 K | 86.71
158.61 K | 87.83
161.66 K | 88.91
164.67 K | 90.3
167.66 K | 91.7
170.63 K | 92.91
173.58 K | 93.88
176.5 K | 95.23
179.4 K | 96.67
182.38 K | 97.92
185.45 K | 99.23
188.5 K | 100.67
191.52 K | 101.97
194.53 K | 103.16
197.5 K | 104.64
200.47 K | 106.06
203.41 K | 107
206.33 K | 108.59
209.23 K | 109.82
212.22 K | 111.35
215.29 K | 112.9
218.35 K | 113.97
221.38 K | 115.37
224.38 K | 117.31
227.37 K | 118.7
230.3 K | 120
233.32 K | 121.77
236.35 K | 123.52
239.26 K | 124.25
242.25 K | 125.83
245.32 K | 127.09
248.39 K | 128.4
251.44 K | 129.85
254.47 K | 130.36
257.5 K | 131.52
260.5 K | 132.74
263.49 K | 134.49
266.46 K | 136.14
269.41 K | 137.72
272.35 K | 139.5
275.26 K | 140.58
278.17 K | 142.55
281.06 K | 143.7
284.01 K | 145.45
287.04 K | 147.06
290.04 K | 148.68
293.01 K | 149.59
295.98 K | 150.99
298.93 K | 152.1
301.87 K | 153.86
304.78 K | 154.72
307.69 K | 155.91
310.57 K | 157.91
313.44 K | 159.33
316.29 K | 160.28
319.11 K | 161.83
321.92 K | 163.28
324.8 K | 164.64
327.74 K | 165.88
330.66 K | 167.18
333.57 K | 168.11
336.45 K | 169.62
339.31 K | 171.01
342.16 K | 172.57
344.98 K | 173.51
347.78 K | 174.14
350.55 K | 175.82
353.29 K | 176.47
355.96 K | 177.08
358.4 K | 178.59
360.61 K | 179.15
363.31 K | 180.38
365.84 K | 181.56
367.88 K | 182.97
370.49 K | 183.67
372.97 K | 184.42
